“Also recorded” adds a separate entry of the source.
Key:
[1] = test system: B. divergens proteasome β5 subunit; assay type: biochemical, Babesia divergens
Method: (§1) B. divergens and B. microti protein lysates were prepared from infected red blood cells. Briefly, red blood cells were lysed with 0.15% saponin prepared in 1× Phosphate-Buffered Saline (PBS), pH 7.5, to release intact parasites. Parasites were washed with 1× PBS, pH 7.5 (PBS), by centrifugation and the pellets were stored at −80 °C in PBS plus 20% glycerol. To prepare protein lysates for enzymatic assays, parasites were thawed and transferred to 50 mM HEPES (pH 7.5), 10 μM E64, 100 μM AESBF, 1 μM Pepstatin A, and 1 mM DTT (all Sigma-Aldrich). Cells were ruptured by ultrasonication with an amplitude of 0.5 for 3 cycles of 15 s on ice. To prepare protein lysates for activity-based probing and proteasome purification, parasites were thawed and transferred to 20 mM Tris-HCl, pH 7.5, 1 mM DTT, 10 μM E64, and 5% glycerol. The lysate was sonicated on ice for 3 times and clarified by centrifugation at 17,000g for 10 min at 4 °C.
To further improve the detection of the β5 subunit activity with the Suc-LLVY-amc substrate of the Babesia proteasome as previously published,[27] we aimed to further optimize assay conditions. However, to reduce the number of experimental animals in the study, assay conditions were optimized using protein lysates of B. divergens, which can be grown in vitro, instead of B. microti lysates, which need to be maintained in mice. […] Assay conditions were optimized in 50 μL volumes in round-bottom 96-well plates. Two assay buffers were evaluated. Buffer A, as described previously,[27] consists of 20 mM HEPES, pH 8, 1 mM ATP, and 1 μM E64, while Buffer B consists of 50 mM HEPES, pH 7.5, 5 mM ATP, 10 μM E64, 100 μM AESBF, 1 μM Pepstatin A, and 1 mM DTT. Buffers A and B were tested with either 0.02% SDS or 6.67 ng of PA28 as activators of the proteasome activity. […] The release of the AMC fluorophore was monitored at 37 °C in a Synergy HTX multimode reader (BioTek) with excitation and emission wavelengths set to 340 and 460 nm, respectively.
Proteasome activity in B. microti and B. divergens lysates was screened in the presence of carmaphycin B (CPB) and numerous analogs that were previously designed to target the P. falciparum 20S proteasome.[30] A pool of lysates was made for each species to ensure that equal amounts of the lysates were used in each inhibition reaction. Inhibitors were transferred to black 384-well plates with the ATS acoustic transfer system (ATS-100, Biosera). Lysates were incubated with inhibitors for 30 min at room temperature and activity was assayed in 30 μL reactions. Each reaction mixture contained 5 μL of Babesia lysate, 10 nL of the inhibitor (final concentration of 133.33 nM), and 25 μL of assay buffer with 25 μM substrate succinyl-Leu-Leu-Val-Tyr-7-amido-4-methylcoumarin (Suc-LLVY-amc). The release of the AMC fluorophore was monitored at 37 °C in a Synergy HTX multimode reader (BioTek Instruments, Winooski, VT) with excitation and emission wavelengths set to 340 and 460 nm, respectively. Activity was quantified as RFU per second and normalized to the DMSO control reactions.

[2] = test system: catalytic subunits of Bd20S; assay: Activity-based probe labeling (Me4BodipyFL-Ahx3Leu3VS) of Bd20S catalytic subunits; assay type: binding, Babesia divergens; conditions: lysates from CFZ- and CPB-treated cells, vs vehicle
[3] = test system: B. microti proteasome β5 subunit; assay: β5 proteasome activity in B. microti lysates (Suc-LLVY-amc); assay type: biochemical, Babesia microti; conditions: 133.33 nM inhibitor, relative to DMSO
Method: as §1
To further improve the detection of the β5 subunit activity with the Suc-LLVY-amc substrate of the Babesia proteasome as previously published,[27] we aimed to further optimize assay conditions. However, to reduce the number of experimental animals in the study, assay conditions were optimized using protein lysates of B. divergens, which can be grown in vitro, instead of B. microti lysates, which need to be maintained in mice. […] Two assay buffers were evaluated. […] The release of the AMC fluorophore was monitored at 37 °C in a Synergy HTX multimode reader (BioTek) with excitation and emission wavelengths set to 340 and 460 nm, respectively.
Proteasome activity in B. microti and B. divergens lysates was screened in the presence of carmaphycin B (CPB) and numerous analogs that were previously designed to target the P. falciparum 20S proteasome.[30] […] The release of the AMC fluorophore was monitored at 37 °C in a Synergy HTX multimode reader (BioTek Instruments, Winooski, VT) with excitation and emission wavelengths set to 340 and 460 nm, respectively. Activity was quantified as RFU per second and normalized to the DMSO control reactions.

[4] = test system: endogenous polyubiquitinated proteins in B. divergens; assay: Western blot of polyubiquitinated proteins in treated B. divergens cultures; assay type: cell-based, Babesia divergens; conditions: 200 nM, 24 h, anti-Ubiquitin K48 western blot, vs 0.1% DMSO
Method: To assess the on-target effect of proteasome inhibition, protein lysates of B. divergens isolated from bovine erythrocyte cultures were evaluated for the accumulation of polyubiquitinated proteins. The B. divergens cultures underwent two 12 h treatments (totaling 24 h) with 200 nM of the inhibitor in culture medium. Parasites were released from RBCs and protein lysates were prepared as described above. The resulting samples were then centrifuged at 15,000g for 15 min at 4 °C and protein concentrations of the resulting supernatant were determined using Bradford assay.[29] Samples were prepared for SDS-PAGE in reducing Laemmli buffer supplemented with β-mercaptoethanol. Ten micrograms of protein was applied per lane and proteins were separated on gradient (4–15%) Criterion TGX Stain-Free Precast gels (BioRad) in Tris-Glycine-SDS running buffer (25 mM Tris, 192 mM glycine, and 0.1% (w/vol) SDS, pH 8.3) and visualized using TGX stain-free chemistry (BioRad). […] After washing (3 × 10 min) in PBS-T, signals were detected using Clarity Max Western ECL substrate (BioRad), visualized using a ChemiDoc MP imager, analyzed, and adjusted using the ImageLab freeware (BioRad).

HepG2 cells = conditions: previously reported; cited from earlier work

CCCCCC(=O)N[C@H](C(=O)N[C@@H](CCS(C)(=O)=O)C(=O)N[C@@H](CC(C)C)C(=O)[C@@]1(C)CO1)C(C)C [carmaphycin B]
inhibition of β5 activity in B. divergens lysate (in words) [1]: to the same extent as CFZ; also recorded: completely inactivate | labeling of catalytic subunits by activity-based probe [2]: significantly reduced | inhibition of β5 activity in B. microti lysate (in words) [3]: to the same extent as CFZ | inhibition of β5 activity in B. microti lysate (in words) ([3]; listed as CPB): inhibited | accumulation of endogenous polyubiquitinated proteins [4]: marked accumulation | EC50 (HepG2 cells): 12.6 ± 1.4 nM
